Reference: patent US10722520B2, “Heterocyclic compounds and their use in preventing or treating bacterial infections” (MUTABILIS, priority 2016, dated 2020)
Structures can show the parent of a compound that is named as a salt. Where two headings read alike, the source gives them in different places.

Columns and labels:
AmpC (P99) = AmpC (P99) (Enterobacter cloacae, UniProt P05364); assay: biochemical
OXA-11 = OXA-11 (Pseudomonas aeruginosa, UniProt Q06778)
AmpC (PAE) = AmpC (PAE) (Pseudomonas aeruginosa, UniProt P24735); assay: biochemical
TEM-1 = TEM-1 (Escherichia coli, UniProt P62593)
OXA-48 = OXA-48 (Klebsiella pneumoniae, UniProt Q6XEC0)
K. pneumoniae BAA-1898 = assay: MIC of compound alone, broth microdilution; type: cell-based; details: Klebsiella pneumoniae, BAA1898; strain BAA-1898; compound alone; read-out: MIC compounds of the invention alone
Experimental: (§1) Log phase bacterial suspensions were adjusted to a final density of 5×10^5 cfu/mL in cation-adjusted Mueller-Hinton broth (Becton-Dickinson) and added to each well (98 μL). Microplates were incubated for 16-20 h at 35° C. in ambient air. The MIC of the compounds was defined as the lowest concentration of said compounds that prevented bacterial growth as read by visual inspection.

P. aeruginosa CIP107051 = assay: MIC of compound alone, broth microdilution; type: cell-based; details: Pseudomonas aeruginosa; strain CIP107051; compound alone; read-out: MIC compounds of the invention alone
Experimental: as §1

E. cloacae P99 = assay: MIC of compound alone, broth microdilution; type: cell-based; details: Enterobacter cloacae; strain P99; compound alone; read-out: MIC compounds of the invention alone
Experimental: as §1

E. coli 190317 = assay: MIC of compound alone, broth microdilution; type: cell-based; details: Escherichia coli; strain 190317; compound alone; read-out: MIC compounds of the invention alone
Experimental: as §1

K. pneumoniae 6299 = assay: MIC of compound alone, broth microdilution; type: cell-based; details: Klebsiella pneumoniae; strain 6299; compound alone; read-out: MIC compounds of the invention alone
Experimental: as §1

OXA-15 = OXA-15 (Pseudomonas aeruginosa, UniProt Q51574); assay: biochemical
CTX-M-15 = CTX-M-15 (Escherichia coli, UniProt Q9EXV5)
SHV-1 = SHV-1 (Klebsiella pneumoniae, UniProt P0AD64)
OXA-1 = OXA-1 (Escherichia coli, UniProt P13661)
CMY-37 = CMY-37 (Citrobacter freundii, UniProt P05193); details: read-out: IC50 β-lactamase CMY-37
KPC-2 = KPC-2 (Klebsiella pneumoniae, UniProt Q9F663)
[1] = class (C), nitrocefin 200 μM, 30-min pre-incubation, enzyme 0.2 nM

| Structure (SMILES) | IC50 (AmpC (P99)) [nM] | IC50 (OXA-11) [nM] | IC50 (AmpC (PAE)) [nM] | IC50 (TEM-1) [nM] | IC50 (OXA-48) [nM] | MIC (K. pneumoniae BAA-1898) [µg/mL] | MIC (P. aeruginosa CIP107051) [µg/mL] | MIC (E. cloacae P99) [µg/mL] | MIC (E. coli 190317) [µg/mL] | MIC (K. pneumoniae 6299) [µg/mL] | IC50 (OXA-15) [nM] | IC50 (CTX-M-15) [nM] | IC50 (SHV-1) [nM] | IC50 (OXA-1) [nM] | IC50 (CMY-37; [1]) [nM] | IC50 (KPC-2) [nM] | IC50 (CMY-37) [nM] |
| --- | --- | --- | --- | --- | --- | --- | --- | --- | --- | --- | --- | --- | --- | --- | --- | --- | --- |
| CC(=NOCCN)c1ccn(C2=CC3CN(C2)C(=O)N3OS(=O)(=O)O)n1 (mixture of isomers) [Example 29, (7-oxo-3-(3-[(Z,E)-N-(2-aminoethoxy)-C-methyl-carbonimidoyl]-pyrazol-1-yl)-1,6-diazabicyclo[3.2.1]oct-3-en-6-yl) hydrogen sulfate] | 25 | 31 | 190 | 0.21 | 3 | 32 | > 32 | 32 | 8 | > 32 | 51 | 0.55 | 1.1 | 150 | 35 | 8.7 | – |
| O=C(Nc1nccs1)c1ccn(C2=CC3CN(C2)C(=O)N3OS(=O)(=O)[O-])n1.[Na+] (stereo not drawn) [Example 25, sodium [7-oxo-3-[3-(thiazol-2-ylcarbamoyl)pyrazol-1-yl]-1,6-diazabicyclo[3.2.1]oct-3-en-6-yl]sulfate] | 9.4 | 4.2 | 130 | 0.29 | 1.7 | > 32 | > 32 | > 32 | > 32 | > 32 | 12 | 0.43 | 1.2 | 37 | – | 2.5 | 9.2 |
| CC(=O)c1cnn(C2=CC3CN(C2)C(=O)N3OS(=O)(=O)[O-])c1.[Na+] (stereo not drawn) [Example 40, sodium [3-(4-acetylpyrazol-1-yl)-7-oxo-1,6-diazabicyclo[3.2.1]oct-3-en-6-yl]sulfate] | 7.5 | 95 | 260 | 0.35 | 6.3 | > 32 | > 32 | > 32 | 32 | > 32 | 8.6 | 0.91 | 1.8 | 150 | – | 3.4 | 8.3 |
| O=C1N2CC(n3ccnc3CO)=CC(C2)N1OS(=O)(=O)[O-].[Na+] (stereo not drawn) [Example 70, sodium [3-[2-(hydroxymethyl)imidazol-1-yl]-7-oxo-1,6-diazabicyclo[3.2.1]oct-3-en-6-yl]sulfate] | 94 | 170 | 600 | 0.63 | 6.2 | 32 | > 32 | > 32 | 32 | > 32 | 30 | 3.5 | 2.3 | 92 | – | 51 | 120 |
| N#Cc1cnn(C2=CC3CN(C2)C(=O)N3OS(=O)(=O)[O-])c1.[Na+] (stereo not drawn) [Example 8, sodium [3-(4-cyanopyrazol-1-yl)-7-oxo-1,6-diazabicyclo[3.2.1]oct-3-en-6-yl]sulfate] | 7.6 | 20 | 140 | 0.35 | 3.5 | > 32 | > 32 | > 32 | 8 | > 32 | 5.3 | 0.78 | 2.5 | 100 | – | 3.3 | 16 |
| NC(=O)c1cnn(C2=CC3CN(C2)C(=O)N3OS(=O)(=O)[O-])c1.[Na+] (stereo not drawn) [Example 7, sodium [3-(4-carbamoylpyrazol-1-yl)-7-oxo-1,6-diazabicyclo[3.2.1]oct-3-en-6-yl]sulfate] | 21 | 93 | 400 | 0.72 | 7.8 | > 32 | > 32 | > 32 | 16 | > 32 | 55 | 2.7 | 4.7 | 250 | – | 12 | 22 |
| [2H]c1nn(C2=CC3CN(C2)C(=O)N3OS(=O)(=O)[O-])c([2H])c1[2H].[Na+] (stereo not drawn) [Example 43, sodium [7-oxo-3-(3,4,5-trideuteriopyrazol-1-yl)-1,6-diazabicyclo[3.2.1]oct-3-en-6-yl]sulfate] | 12 | 39 | 9.4 | 0.85 | 6 | 8 | > 32 | 4 | 1 | 8 | 140 | 0.87 | 3.6 | 98 | – | 29 | 6.4 |
| O=C(Nc1nncs1)c1ccn(C2=CC3CN(C2)C(=O)N3OS(=O)(=O)[O-])n1.[Na+] (stereo not drawn) [Example 84, sodium [7-oxo-3-[3-(1,3,4-thiadiazol-2-ylcarbamoyl)pyrazol-1-yl]-1,6-diazabicyclo[3.2.1]oct-3-en-6-yl]sulfate] | 25 | 22 | 160 | 0.78 | 7.2 | > 32 | > 32 | > 32 | > 32 | > 32 | 98 | 1 | 2.7 | 150 | – | 8.5 | 20 |
| O=C(NCCN1CCOCC1)c1ccn(C2=CC3CN(C2)C(=O)N3OS(=O)(=O)O)n1 (stereo not drawn) [Example 72, [3-[3-(2-morpholinoethylcarbamoyl)pyrazol-1-yl]-7-oxo-1,6-diazabicyclo[3.2.1]oct-3-en-6-yl]hydrogen sulfate] | 43 | 36 | 540 | 0.91 | 2.5 | > 32 | > 32 | > 32 | > 32 | > 32 | 43 | 0.57 | 6.7 | 100 | 86 | 7 | – |
| NCCc1cnn(C2=CC3CN(C2)C(=O)N3OS(=O)(=O)O)c1 (stereo not drawn) [Example 41, [3-[4-(2-aminoethyl)pyrazol-1-yl]-7-oxo-1,6-diazabicyclo[3.2.1]oct-3-en-6-yl]hydrogen sulfate] | 36 | 180 | 88 | 0.58 | 8.9 | > 32 | 32 | 4 | 2 | > 32 | 40 | 0.91 | 4.5 | 750 | 21 | 57 | – |
| Nc1ncc(C(=O)Nc2ccn(C3=CC4CN(C3)C(=O)N4OS(=O)(=O)[O-])n2)s1.[Na+] (stereo not drawn) [Example 13, sodium [3-[3-[(2-aminothiazole-5-carbonyl)amino]pyrazol-1-yl]-7-oxo-1,6-diazabicyclo[3.2.1]oct-3-en-6-yl]sulfate] | 2.6 | 4 | 8.7 | 0.65 | 1.9 | > 32 | > 32 | > 32 | 32 | > 32 | 11 | 0.62 | 3.2 | 27 | – | 2.5 | 1.1 |
| O=C1N2CC(n3cc(F)cn3)=CC(C2)N1OS(=O)(=O)[O-].[Na+] (stereo not drawn) [Example 14, sodium (7-oxo-3-(4-fluoropyrazol-1-yl)-1,6-diazabicyclo[3.2.1]oct-3-en-6-yl) sulfate] | 17 | 34 | 21 | 0.87 | 8.6 | 8 | > 32 | 16 | 4 | 16 | 52 | 1.8 | 4 | 82 | – | 17 | 10 |
